Source: EP4613329A1, “COMPOUND FOR INHIBITING BRD PROTEIN” (Benobio Co., Ltd., priority 2024, dated 2025)

Legend:
BRD3 (BD1) = molecular target: T1, BRD3 (BD1) (Homo sapiens, UniProt Q15059); assay: Binding inhibitory effect on BRD3 protein (same manner as Experimental Example 1-1)
T1 construct: a bromodomain of BRD2 (BD1) and BRD3 (BD1), one of the BRD protein family; GST

BRD2 (BD1) = molecular target: T2, BRD2 (BD1) (Homo sapiens, UniProt P25440); assay: Binding inhibitory effect on BRD2 protein (AlphaScreen, GST-BRD2 (BD1) / biotinylated acetyl-histone H4 peptide); details: 100 nM GST-BRD2 (BD1), 100 nM biotinylated acetyl-histone H4 (Lys5, 8, 12, 16) peptide
T2 construct: a bromodomain of BRD2 (BD1) and BRD3 (BD1), one of the BRD protein family
T2 sequence (P25440 74-180 limits assumed, species assumed): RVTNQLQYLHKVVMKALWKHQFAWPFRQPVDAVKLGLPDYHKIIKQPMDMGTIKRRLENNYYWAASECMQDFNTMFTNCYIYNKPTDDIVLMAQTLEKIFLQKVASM

[1] = system: retinal degeneration mouse model; assay: Electroretinogram (ERG) in blue LED-induced retinal degeneration mouse model; format: in vivo, albino BALB/c mice; details: compound 24 nM, Com. Ex. 4 25 mg/kg; for Wavelength enhanced multiple compared to normal saline-treated group, Average value: average of a-wave and b-wave, intravitreal; for Wavelength enhanced multiple compared to normal saline-treated group, a-wave / Wavelength enhanced multiple compared to normal saline-treated group, b-wave: single intravitreal injection 1 hour after LED exposure
Description: In order to fabricate a retinal degeneration model, 7-week-old male albino BALB/c mice were used. Three mice were randomly assigned to each test group, and light and dark were maintained at 12-hour intervals. Each mouse was dark-adapted for 24 hours and then the pupils were dilated with 0.5% tropicamide and 0.5% phenylephrine hydrochloride eye drops (Santen, Osaka, Japan) 30 minutes before blue LED exposure. Unanesthetized mice were exposed to 2,000 lux of a blue LED (460 ± 10 nm) for 2 hours in a cage with reflective interiors. The light intensity was measured using an LED photometer (model TM-201L, TENMARS Electronics, Taipei, Taiwan). After exposure to blue LED, the mice were kept in the dark for 24 hours and then resumed on a 12-hour light/dark cycle for 3 days.
In a test substance control test, mice with retinal degeneration were divided into a normal saline-administered group and a compound-administered group (24 nM) of the present disclosure, and 3 mice were randomly assigned to each test group. A positive control test was divided into a normal saline-administered group and an Eyela (25 mg/kg mouse body weight)-administered group (Comparative Example 4), and three mice were randomly assigned to each test group.
All test groups were administered as a single dose by intravitreal injection 1 hour after LED exposure.
That is, mice were stored in a completely dark room for 16 hours before ERG recordings. All animals were anesthetized intraperitoneally with zolazepam (20 mg/kg) and xylazine (7.5 mg/kg). The cornea was coated with hydroxypropyl methylcellulose gel and covered with a gold ring contact electrode. Ground and reference electrodes were disposed subcutaneously on the tail and ears, respectively. Stimuli were short white flashes delivered through a Ganzfeld stimulator (UTAS-3000; LKC Technologies, Gaithersburg, MD, USA). The signal was amplified and filtered through a digital band-pass filter in the range of 5 to 300 Hz to generate a and b waves. Scotopic ERG, and rod-mediated responses were obtained at increasing light intensities of 0.025 and 3.96 cd/s • m^2. Photopic, cone-mediated responses were obtained after 5-min light adaptation to background light intensity. The recordings were obtained at the light intensity of 6.28 cd/s • m^2. Each recording was the average of three responses obtained within a 15-second stimulation interval. A-wave amplitude was measured from a baseline to the maximum a-wave peak, and b-wave amplitude was measured from the maximum a-wave peak to the maximum b-wave peak.

T1 sequence (Q15059 34-140 limits assumed, species assumed): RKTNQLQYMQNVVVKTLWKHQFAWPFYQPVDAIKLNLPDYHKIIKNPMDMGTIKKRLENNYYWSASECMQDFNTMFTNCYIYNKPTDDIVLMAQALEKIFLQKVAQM

Row | SMILES | IC50 (BRD3 (BD1)) [µM] | IC50 (BRD2 (BD1)) [µM] | Wavelength enhanced multiple compared to normal saline-treated group, Average value [1] | Wavelength enhanced multiple compared to normal saline-treated group, a-wave [1] | Wavelength enhanced multiple compared to normal saline-treated group, b-wave [1]
1 | CNCc1ccc(-c2ccccc2-c2cccc3c2CN(C)C3=O)o1 [Compound 1, 2-methyl-4-(2-(5-((methylamino)methyl)furan-2-yl)phenyl)isoindoline-1-one] | 1.39 | 16.9 | – | – | –
2 | CCNCc1ccc(-c2ccccc2-c2cccc3c2CN(C)C3=O)o1 [Compound 2, 2-methyl-4-(2-(5-((ethylamino)methyl)furan-2-yl)phenyl)isoindoline-1-one] | 1.26 | 16.8 | – | – | –
3 | CCCNCc1ccc(-c2ccccc2-c2cccc3c2CN(C)C3=O)o1 [Compound 3, 2-methyl-4-(2-(5-((propylamino)methyl)furan-2-yl)phenyl)isoindoline-1-one] | 4.51 | 14.1 | – | – | –
4 | COCNCc1ccc(-c2ccccc2-c2cccc3c2CN(C)C3=O)o1 [Compound 4, 2-methyl-4-(2-(5-((methoxymethylamino)methyl)furan-2-yl)phenyl)isoindoline-1-one] | 4.43 | 17.4 | – | – | –
5 | CN(C)CCNCc1ccc(-c2ccccc2-c2cccc3c2CN(C)C3=O)o1 [Compound 5, 2-methyl-4-(2-(5-((dimethylaminoethylamino)methyl)furan-2-yl)phenyl)isoindoline-1-one] | 2.36 | 12.4 | – | – | –
6 | C#CCN(C)Cc1ccc(-c2ccccc2-c2cccc3c2CN(C)C3=O)o1 [Compound 6] | 2.61 | 15.8 | – | – | –
7 | CN1Cc2c(cccc2-c2ccccc2-c2ccc(CNC3CCCC3)o2)C1=O [Compound 7, 2-methyl-4-(2-(5-((cyclopentylamino)methyl)furan-2-yl)phenyl)isoindoline-1-one] | 4.35 | 18.2 | – | – | –
8 | CC(C)NCc1ccc(-c2ccccc2-c2cccc3c2CN(C)C3=O)o1 [Compound 8, 2-methyl-4-(2-(5-((isopropylamino)methyl)furan-2-yl)phenyl)isoindoline-1-one] | 2.2 | – | – | – | –
9 | CN1Cc2c(cccc2-c2ccccc2-c2ccc(CNCCS(C)(=O)=O)o2)C1=O [Compound 9] | 3.85 | 19.7 | – | – | –
10 | CN1CCN(CCNCc2ccc(-c3ccccc3-c3cccc4c3CN(C)C4=O)o2)CC1 [Compound 10, 2-methyl-4-(2-(5-(((2-(4-methylpiperazine-1-yl)ethyl)amino)methyl)furan-2-yl)phenyl)isoindoline-1-one] | 3.89 | 11.4 | – | – | –
11 | CN1Cc2c(cccc2-c2ccccc2-c2ccc(CN3CCN(S(C)(=O)=O)CC3)o2)C1=O [Compound 11] | 3.71 | 16.6 | – | – | –
12 | CN1Cc2c(cccc2-c2ccccc2-c2ccc(CN3CCCCC3)o2)C1=O [Compound 12, 2-methyl-4-(2-(5-(piperidine-1-ylmethyl)furan-2-yl)phenyl)isoindoline-1-one] | 2.99 | 14.5 | – | – | –
13 | CN1Cc2c(cccc2-c2ccccc2-c2ccc(CN3CCOCC3)o2)C1=O [Compound 13, 2-methyl-4-(2-(5-(morpholinomethyl)furan-2-yl)phenyl)isoindoline-1-one] | 3.65 | 7.65 | 1.33 | 1.29 | 1.36
14 | CN1Cc2c(cccc2-c2ccccc2-c2ccc(CN3CCN(c4cccc(F)c4)CC3)o2)C1=O [Compound 14, 2-methyl-4-(2-(5-(((4-(3-fluorophenyl)piperazine-1-yl)methyl))furan-2-yl)phenyl)isoindoline-1-one] | 2.4 | 13.3 | – | – | –
15 | CN1Cc2c(cccc2-c2ccccc2-c2ccc(CN3CCC(N(C)C)CC3)o2)C1=O [Compound 15, 2-methyl-4-(2-(5-((4-(dimethylamino)piperidine-1-yl)methyl)furan-2-yl)phenyl)isoindoline-1-one] | 2.56 | 15.8 | – | – | –
16 | CN1Cc2c(cccc2-c2ccccc2-c2ccc(CN3CCN(C(C)(C)C(N)=O)CC3)o2)C1=O [Compound 16] | 1.75 | 15.8 | – | – | –

Row | SMILES | IC50 (BRD3 (BD1)) [µM] | IC50 (BRD2 (BD1)) [µM] | Wavelength enhanced multiple compared to normal saline-treated group, Average value [1] | Wavelength enhanced multiple compared to normal saline-treated group, a-wave [1] | Wavelength enhanced multiple compared to normal saline-treated group, b-wave [1]
17 | CN1Cc2c(cccc2-c2ccccc2-c2ccc(CNCc3ccccc3)o2)C1=O [Compound 17, 2-methyl-4-(2-(5-((benzylamino)methyl)furan-2-yl)phenyl)isoindoline-1-one] | 3.61 | 14 | – | – | –
18 | CN1Cc2c(cccc2-c2ccccc2-c2ccc(CNCc3cnn(C)c3)o2)C1=O [Compound 18, 2-methyl-4-(2-(5-((((1-methyl-1H-pyrazole-4yl)methyl)amino)methyl)furan-2-yl)phenyl)isoindoline-1-one] | 2.67 | 6.51 | 2.04 | 2.05 | 2.03
19 | CNC(=O)C1(Cc2ccccc2)CCN(Cc2ccc(-c3ccccc3-c3cccc4c3CN(C)C4=O)o2)CC1 [Compound 19] | 1.4 | 13.9 | – | – | –
20 | CN1Cc2c(cccc2-c2ccccc2-c2ccc(CN3CCC(Cc4ccc(F)cc4)(C(=O)NCc4ccccc4)CC3)o2)C1=O [Compound 20] | 3.72 | 16.7 | – | – | –
21 | CN1Cc2c(cccc2-c2ccccc2-c2ccc(CN3CCC4(CC3)C(=O)NCC4c3ccc(F)cc3)o2)C1=O (stereo not drawn) [Compound 22, 2-methyl-4-(2-(5-((4-(4-fluorophenyl)-2λ^2,8-diazaspiro[4,5]decan-1-one)methyl)furan-2-yl)phenyl)isoindoline-1-one] | 1.19 | 13.7 | – | – | –
22 | CN1Cc2c(cccc2-c2ccccc2-c2ccc(CN3CCC4(CC3)C(=O)N(C)CC4c3ccc(F)cc3)o2)C1=O (stereo not drawn) [Compound 23, 2-methyl-4-(2-(5-(((4-(4-fluorophenyl)-2-methyl)-2λ^2,8-diazaspiro[4,5]decan-1-one)methyl)furan-2-yl)phenyl)isoindoline-1-one] | 1.3 | 15.3 | – | – | –
23 | CCC1(C(=O)NC)CCCN(Cc2ccc(-c3ccccc3-c3cccc4c3CN(C)C4=O)o2)C1 (stereo not drawn) [Compound 24] | 1.67 | 15.2 | – | – | –
24 | CNC(=O)CC1C(=O)NCCN1Cc1ccc(-c2ccccc2-c2cccc3c2CN(C)C3=O)o1 (stereo not drawn) [Compound 26] | 1.38 | 13 | – | – | –
25 | CN1Cc2c(cccc2-c2ccccc2-c2ccc(CN3CCC(Cc4ccccc4)(C(N)=O)CC3)o2)C1=O [Compound 29, 2-methyl-4-(2-(5-(((4-benzyl-4'-carboxamidyl)piperidine)methyl)furan-2-yl)phenyl)isoindoline-1-one] | 4.86 | 14.6 | – | – | –
26 | CN1Cc2c(cccc2-c2ccccc2-c2ccc(CN3CCC(Cc4ccncc4)(C(N)=O)CC3)o2)C1=O [Compound 31, 2-methyl-4-(2-(5-(((4-pyridinylmethyl-4'-carboxamidyl)piperidine)methyl)furan-2-yl)phenyl)isoindoline-1-one] | 2.78 | 15 | – | – | –
27 | CNC(=O)C1(Cc2ccc(F)cc2)CCN(C(=O)c2ccc(-c3ccccc3-c3cccc4c3CN(C)C4=O)o2)CC1 [Compound 32, 2-methyl-4-(2-(5-(((4-(4-fluorobenzyl)-4'-carboxamidyl)piperidine)carbonyl)furan-2-yl)phenyl)isoindoline-1-one] | 3.99 | 16.8 | – | – | –
28 | CNC(=O)c1ccc(-c2ccccc2-c2cccc3c2CN(C)C3=O)o1 [Compound 33, 2-methyl-4-(2-(5-((methylamino)carbonyl)furan-2-yl)phenyl)isoindoline-1-one] | 2.39 | 11.1 | – | – | –
29 | CNC(=O)C1(C)CN(C(=O)c2ccc(-c3ccccc3-c3cccc4c3CN(C)C4=O)o2)CCC1O (stereo not drawn) [Compound 34] | 4.68 | 15.7 | – | – | –
30 | CCC1(C(=O)NC)CCCN(C(=O)c2ccc(-c3ccccc3-c3cccc4c3CN(C)C4=O)o2)C1 (stereo not drawn) [Compound 36] | 4.26 | 14.5 | – | – | –
31 | CNCc1oc(-c2ccccc2-c2cccc3c2CN(C)C3=O)cc1C [Compound 38] | 1.12 | 12.5 | – | – | –
32 | CNC(=O)C1(C)CN(Cc2oc(-c3ccccc3-c3cccc4c3CN(C)C4=O)cc2C)CCC1O (stereo not drawn) [Compound 41] | 2.14 | 15.5 | – | – | –
